One data set has as its system 3T3-L1 cells. In words: Glucose-uptake test (2-DOG uptake) in 3T3-L1 cells. The data set is classed as cell-based. Conditions: cpm divided by amount of proteins; for activity at 50 µg/mL: Mus musculus, 3T3-L1, 24 h, 50 μg/ml, read-out: 2-DOG Uptake (%) at a concentration of 50 μg/ml. As to the method:
Glucose-uptake tests as a means for screening compounds for the effect of reducing the blood sugar level were carried out according to the following procedures. 1) Cell: The following cells were used. 3T3-L1 (purchased from Dainippon Pharmaceutical Co. Ltd.) 2) Reagents: The following reagents were used. DMEM (GIBCO); FBS (GIBCO); […] DMSO: dimethylsulfoxide (Wako Pure Chemical Co., Ltd.); ACS2 (Amersham); urea (Wako Pure Chemical Co., Ltd.); protein-determining kit (Bio Rad Code No.). 3) Instrument: The following instrument was used in the test. 24-well plate (Falcon) 3T3-L1 cells were dispersed in a 10% FBS-containing DME medium in a cell concentration of 10000 cells/ml, the resulting cell suspension was dispensed into a 24-well plate in an amount of 1 ml per well and the cells were cultivated in a 5% CO2 -incubator at 37° C. for 5 days. After soaking up the medium in the wells, the plate was washed once with PBS in an amount of 2 ml/well. […] The cells were cultivated in a sample compound-containing medium at 37° C. for 24 hours in a 5%-CO2 -incubator. After the cultivation, the medium was soaked up and the plate was washed three times with 2 ml/well each of PBS. […] After washing with 2 ml/well of PBS, the PBS was sufficiently soaked up. […] The lysate was also inspected for the amount of proteins using 0.2 ml out of the rest of the lysate, according to the microassay method using a protein-determining kit.

The nature of data set [1]: Acute toxicity test, oral administration to rats. To be noted: rat, in vivo, orally administered. The procedure: The acute toxicity was determined by an acute toxicity test wherein each sample compound was orally administered to rats. The results (LD50 values) thus obtained are listed below: […]

The record followed here is patent publication US5811439A, “Thiazolidinedione derivatives, method for preparing the derivatives and pharmaceutical compositions containing same” (Senga Pharmaceutical Laboratory Inc., priority 1995, dated 1998).

Take `O=C1NC(=O)C(Cc2cccc3c2ccn3Cc2ccccc2)S1` (stereo not shown) [Example 3, 5-(1-benzylindol-4-yl)methyl-2,4-thiazolidinedione]: the activity at 50 µg/mL in the data set on 3T3-L1 cells worked out at 217%. Further, the LD50 (as a rule, the dose expected to kill half of the subjects tested) in data set [1] is not below 2000 mg/kg. Taken in the same sequence, the figures for `O=C1NC(=O)C(Cc2cccc3c2ccn3Cc2ccc(F)cc2)S1` (stereo not shown) [Example 52, 5-[1-(4-fluorobenzyl)indol-4-yl]-methyl-2,4-thiazolidinedione] were 280% and not below 2000 mg/kg. For the compound `N#Cc1ccc(Cn2cc(CC3SC(=O)NC3=O)c3ccccc32)cc1` (stereo not shown) [Example 285, 5-[1-(4-cyanobenzyl)indol-3-yl]methyl-2,4-thiazolidinedione], the activity at 50 µg/mL with 3T3-L1 cells was found to be 225%. Still for that read-out and setting: then `O=C1NC(=O)C(Cc2cn(Cc3ccccc3)c3ccccc23)S1` (stereo not shown) [Example 288, 5-(1-benzylindol-3-yl)methyl-2,4-thiazolidinedione], with 209%.

Consider `O=C1NC(=O)C(Cc2ccc3c(ccn3CCc3ccccc3)c2)S1` (stereo not shown) [Example 305, 5-(1-phenethylindol-5-yl)methyl-2,4-thiazolidinedione], for which the activity at 50 µg/mL in the data set on 3T3-L1 cells was 215%. The same measure, in the same setting: the same measure for `O=C1NC(=O)C(Cc2cc3ccccc3n2Cc2ccccc2)S1` (stereo not shown) [Example 312, 5-(1-benzylindol-2-yl)methyl-2,4-thiazolidinedione]: 164%; for `O=C1NC(=O)C(Cc2cn(Cc3ccc(O)cc3)c3ccccc23)S1` (stereo not shown) [Example 317, 5-[1-(4-hydroxybenzyl)indol-3-yl]methyl-2,4-thiazolidinedione]: 169%.

With `Cl.O=C1NC(=O)C(Cc2cccc3c2ccn3Cc2ccccn2)S1` (stereo not shown) [Example 337, 5-[1-(2-picolyl)indol-4-yl]methyl-2,4-thiazolidinedione hydrochloride], the “2-DOG Uptake (%) at a concentration of 50 μg/ml” value in the data set on 3T3-L1 cells (24 hours) stood at 181%.
